Laboratory results taken from US12501899B2, “Mite infestation treatment” (priority 2019, dated 2025).
Like-named read-outs stand apart in the source and are kept apart here.

Tests used:
Ixodes ricinus = assay: Oral acaricidal test on ticks in membrane feeding wells with treated blood; type: in vivo; settings: for average percentage of affected adult ticks (convulsion, morbidity or death of ticks): 100 ppm oral; for mortality at 100 ppm: Ixodes ricinus, po
How it was run: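 Ixodes ricinus nymphs and adults (batches of 12) fed through silicone membranes on ATP-enriched blood at 37 °C; after attachment (24 h), compounds at 1, 10, 100 ppm in 0.1% DMSO added for 24 h, blood changed at 12 h. Mortality, attachment and convulsions scored at 1–96 h.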

Varroa destructor = settings: 1 μg/μL, 1 μL on bee thorax; time not stated (monitored up to 24 hours)

Cc1ccc(/N=C/N(C)/C=N/c2ccc(C)cc2C)c(C)c1 [Amitraz]
average percentage of affected adult ticks (convulsion, morbidity or death of ticks) (Ixodes ricinus; adult ticks, 1 h): 66.8% | average percentage of affected adult ticks (convulsion, morbidity or death of ticks) (Ixodes ricinus; adult ticks, 3 h): 56.2% | average percentage of affected adult ticks (convulsion, morbidity or death of ticks) (Ixodes ricinus; adult ticks, 6 h): 53.7% | average percentage of affected adult ticks (convulsion, morbidity or death of ticks) (Ixodes ricinus; adult ticks, 12 h): 56.2% | average percentage of affected adult ticks (convulsion, morbidity or death of ticks) (Ixodes ricinus; adult ticks, 24 h): 66.5% | average percentage of affected adult ticks (convulsion, morbidity or death of ticks) (Ixodes ricinus; adult ticks, 48 h): 83.1% | average percentage of affected adult ticks (convulsion, morbidity or death of ticks) (Ixodes ricinus; adult ticks, 72 h): 100.0% | average percentage of affected adult ticks (convulsion, morbidity or death of ticks) (Ixodes ricinus; adult ticks, 96 h): 100.0% | detachment of adult ticks (in words) (Ixodes ricinus; 100 ppm, adult ticks): strong detachment | average percentage of attached adult ticks (Ixodes ricinus; 100 ppm, adult ticks, 1 h): 66.8% | average percentage of attached adult ticks (Ixodes ricinus; 100 ppm, adult ticks, 3 h): 56.2% | average percentage of attached adult ticks (Ixodes ricinus; 100 ppm, adult ticks, 6 h): 53.7% | average percentage of attached adult ticks (Ixodes ricinus; 100 ppm, adult ticks, 12 h): 53.7% | average percentage of attached adult ticks (Ixodes ricinus; 100 ppm, adult ticks, 24 h): 53.7% | average percentage of attached adult ticks (Ixodes ricinus; 100 ppm, adult ticks, 48 h): 53.7% | average percentage of attached adult ticks (Ixodes ricinus; 100 ppm, adult ticks, 72 h): 53.7% | average percentage of attached adult ticks (Ixodes ricinus; 100 ppm, adult ticks, 96 h): 53.7% | effect on nymphs (convulsion, morbidity or death), in words (Ixodes ricinus; 100 ppm, nymphs, compared with SN0305, SN0306, SN0307): comparable result | mortality at 100 ppm (Ixodes ricinus; adult ticks, 100 ppm, 1 h, read-out: average percentage of adult tick mortality (moribund or dead adult ticks)): 0% | mortality at 100 ppm (Ixodes ricinus; adult ticks, 100 ppm, 3 h, read-out: average percentage of adult tick mortality (moribund or dead adult ticks)): 2.8% | mortality at 100 ppm (Ixodes ricinus; adult ticks, 100 ppm, 6 h, read-out: average percentage of adult tick mortality (moribund or dead adult ticks)): 10.1% | mortality at 100 ppm (Ixodes ricinus; adult ticks, 100 ppm, 12 h, read-out: average percentage of adult tick mortality (moribund or dead adult ticks)): 17.4% | mortality at 100 ppm (Ixodes ricinus; adult ticks, 100 ppm, 24 h, read-out: average percentage of adult tick mortality (moribund or dead adult ticks)): 27.7% | mortality at 100 ppm (Ixodes ricinus; adult ticks, 100 ppm, 48 h, read-out: average percentage of adult tick mortality (moribund or dead adult ticks)): 58.9% | mortality at 100 ppm (Ixodes ricinus; adult ticks, 100 ppm, 72 h, read-out: average percentage of adult tick mortality (moribund or dead adult ticks)): 84.6% | mortality at 100 ppm (Ixodes ricinus; adult ticks, 100 ppm, 96 h, read-out: average percentage of adult tick mortality (moribund or dead adult ticks)): 97.5% | mortality at 100 ppm (Ixodes ricinus; nymphs, 100 ppm, 1 h, read-out: average percentage of mortality of tick nymphs (moribund or dead nymphs)): 0% | mortality at 100 ppm (Ixodes ricinus; nymphs, 100 ppm, 3 h, read-out: average percentage of mortality of tick nymphs (moribund or dead nymphs)): 14% | mortality at 100 ppm (Ixodes ricinus; nymphs, 100 ppm, 6 h, read-out: average percentage of mortality of tick nymphs (moribund or dead nymphs)): 38.7% | mortality at 100 ppm (Ixodes ricinus; nymphs, 100 ppm, 12 h, read-out: average percentage of mortality of tick nymphs (moribund or dead nymphs)): 74.9% | mortality at 100 ppm (Ixodes ricinus; nymphs, 100 ppm, 24 h, read-out: average percentage of mortality of tick nymphs (moribund or dead nymphs)): 100% | mortality at 100 ppm (Ixodes ricinus; nymphs, 100 ppm, 48 h, read-out: average percentage of mortality of tick nymphs (moribund or dead nymphs)): 100% | mortality at 100 ppm (Ixodes ricinus; nymphs, 100 ppm, 72 h, read-out: average percentage of mortality of tick nymphs (moribund or dead nymphs)): 100% | mortality at 100 ppm (Ixodes ricinus; nymphs, 100 ppm, 96 h, read-out: average percentage of mortality of tick nymphs (moribund or dead nymphs)): 100% | Varroa mites killed / mortality for Varroa mites (Varroa destructor): 100%
